Experiment: Bioavailability study in NZW rabbits after single dose topical administration, sorafenib content by LC-MS
Type: in vivo
Procedure: Bioavailability study in NZW rabbits after single dose administration (50 μL topical administration in the right eye) was conducted and content of sorafenib tosylate in plasma (PL), bulbar conjunctivae (BCJ), aqueous humor (AH), cornea (C), vitreous (V), retina (R), and sclera (SC) was evaluated after treatment at t=5, 15, 30, 60, 90, 120 min by LC-MS.
Thirty-six NZW male rabbits, weighing approximately 2 kg, were used in this study. The study was conducted in accordance with GLP standards at the test facility IRIS PHARMA. All animals were treated according to the Directive 2010/63/UE European Convention for the Protection of Vertebrate Animals used for Experimental and Other Scientific Purposes and to the ARVO Statement for the Use of Animals in Ophthalmic and Vision Research. All animals were housed individually in standard cages under identical temperature (18° C.±3° C.), relative humidity (45%-80%), and controlled enrichment conditions and exposed to a 12-h light and darkness cycle in continuously ventilated rooms (15-20 air volumes per hour). They received a standard dry pellet diet and water ad libitum. Only animals with no macroscopic ocular signs of irritation were involved in this study and randomly divided in six time-point groups of 6 animals each (Table 3).
Animals received a single 50 μL topical administration in the right eye and at the time-points listed in Table 3 they were anesthetized by an intramuscular injection of a mix xylazine/ketamine before euthanasia by an intracardiac injection of overdosed pentobarbital. The whole blood in EDTA anticoagulant tubes were sampled by intracardiac puncture, and plasma was prepared and frozen at −23° C.±7° C. Immediately after euthanasia, BCJ, AH, C, V, R, and SC were quickly and carefully dissected from both eyes and weighed, frozen in dry ice and at −23° C.±7° C. until assay. Content of sorafenib was determined in R and PL of both eyes in priority and in AH, BCJ, C, V and SC of both eyes following the rapid resolution liquid chromatography/tandem mass spectrometry method.

For `CNC(=O)c1cc(Oc2ccc(NC(=O)Nc3ccc(Cl)c(C(F)(F)F)c3)cc2)ccn1` [sorafenib], the concentration at 120 min (male, NZW, rabbit, cornea, topical, 50 μL, 120 min (2 h) post treatment, SD=±596) was 1710 ng/g, the “time of sorafenib maximum content in retina of treated eyes” value (single 50 μL instillation in right eye) was 5 min and the “sorafenib maximum content in retina of treated eyes” value (single 50 μL instillation in right eye, 5 min after treatment) was 170 ng/g. For the same molecule, the “sorafenib in retina of left untreated eyes” value (single 50 μL instillation in right eye, all rabbits) was “no amount of sorafenib was detected” and the “highest detected amount of sorafenib in plasma” value (two hours after treatment) was 2 ng/g.

— US20250288520A1, “Microemulsion Pharmaceutical Composition For Treatment Of Disorders Of The Anterior Segment Of The Eye” (SIFI S.P.A., priority 2022, published 2025)
